From patent publication US7547700B2, “Aryl-[4-halo-4(heteroarylmethylamino)-methyl]-piperidin-1-1yl]-methanone derivatives, methods for production and use thereof as medicaments” (PIERRE Fabre Medicament, priority 2002, dated 2009) come the findings set out here.

The target in series [1] is T1, dopaminergic D2 receptors (Rattus norvegicus, UniProt P61169).
T1 construct: For these experiments, rat striatum is used; from tissue; host or cells: rat striatum homogenate
Kind of series: Affinity for the D2 receptors, displacement of [3H]YM-09151-2. Format: binding. Conditions: rat striatum, [3H]YM-09151-2 displacement, mean of at least 3 experiments; for pKi: D2 pKi. As for the experimental part: Measurement of the affinity of the compounds of the invention for the D2 receptors
For these experiments, rat striatum is used. After thawing the brain in Tris-HCl buffer (50 mmol, pH=7.4) at 25° C., the striatum is removed and homogenized in 40 volumes of buffer maintained at 4° C. The homogenate is centrifuged at 20 000×g for 10 minutes, and the centrifugation pellet is suspended in the same volume of buffer and recentrifuged. The final pellet is suspended in cold Tris-HCl reaction buffer at 25° C. containing 120 mmol of NaCl and 5 mmol of KCl. The final concentration of tissue in the incubation medium is 2 mg/tube. […] The nonspecific binding is defined by using […] of (+)-butaclamol. The reaction tubes are incubated at 23° C. for 60 minutes and their content is then rapidly filtered through Whatman GF/B filters, and the tubes are rinsed twice with 5 ml of Tris-HCl buffer at 25° C. The radioactivity collected on the filter is analyzed by liquid scintillation, by adding 4 ml of scintillant liquid (Emulsifier Safe, Packard). All the experiments are performed in triplicate.
(In general: Loss of bound radioactivity is the signal in a displacement assay; it reports binding, not function.)

The target of series [2] is T2, 5-HT1A receptors (Homo sapiens, UniProt P08908).
T2 construct: Gibco Biocult; Laboratory, Paisley UK; host or cells: unspecified cells; membrane preparation
T2 sequence (P08908 1-422): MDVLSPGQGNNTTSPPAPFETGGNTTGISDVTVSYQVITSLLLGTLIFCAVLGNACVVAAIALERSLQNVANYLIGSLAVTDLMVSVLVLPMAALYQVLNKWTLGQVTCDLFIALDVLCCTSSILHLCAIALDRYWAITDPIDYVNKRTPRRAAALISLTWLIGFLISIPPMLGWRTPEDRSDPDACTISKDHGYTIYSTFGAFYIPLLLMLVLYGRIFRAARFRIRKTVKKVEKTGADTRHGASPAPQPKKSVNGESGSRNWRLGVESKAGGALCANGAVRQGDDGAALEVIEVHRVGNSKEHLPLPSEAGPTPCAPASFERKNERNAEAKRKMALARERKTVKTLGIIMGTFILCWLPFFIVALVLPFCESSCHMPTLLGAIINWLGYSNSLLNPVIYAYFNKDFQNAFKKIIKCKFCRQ
Kind of series: Efficacy: stimulation of [35S]GTPγS binding in a cell membrane preparation. Format: biochemical. The protocol:
Measurement of the Efficacy of the Compounds of the Invention
The cells (Gibco Biocult. Laboratory, Paisley UK) are collected in phosphate buffer (pH=7.4) and centrifuged at 48 000 g for 20 minutes. The centrifugation pellet is homogenized in Hepes (20 mmol, pH=7.4) containing EDTA (10 mmol) and recentrifuged at 48 000×g for 10 minutes. The centrifugation pellet is washed twice in Hepes (10 mmol, pH=7.4) containing EDTA (0.1 mmol). The pellet is stored at −80° C. in portions of 600 to 750 μg of protein. […] The incubation medium contains 0.4 ml of membrane preparation and 0.05 ml of test compound. After incubation for 30 minutes at 25° C., 0.05 ml of [^35S]GTPγS (500 picomol), ([^35S]GTPγS (1100 Ci/mmol), Amersham, Les Ulis France), is added and the mixture incubated for 30 minutes. The reactions are quenched by addition of 3 ml of ice-cold Hepes (20 mmol) containing 3 mmol of MgCl2 and rapid filtration through Whatman GF/B filters. The tubes are rinsed 3 times with 5 ml of Hepes buffer at 25° C. The radioactivity collected on the filter is analyzed by liquid scintillation by adding 4 ml of scintillant liquid (Emulsifier Safe, Packard). […] All the experiments are performed in triplicate.
In general terms: Binding of GTPγS marks nucleotide exchange on a G protein.

The target of series [3] is T3, 5-HT1A receptors (Rattus norvegicus, UniProt P19327).
T3 construct: For these experiments, rat cerebral cortices are used; from tissue; host or cells: rat cerebral cortex homogenate
T3 sequence (P19327 1-422): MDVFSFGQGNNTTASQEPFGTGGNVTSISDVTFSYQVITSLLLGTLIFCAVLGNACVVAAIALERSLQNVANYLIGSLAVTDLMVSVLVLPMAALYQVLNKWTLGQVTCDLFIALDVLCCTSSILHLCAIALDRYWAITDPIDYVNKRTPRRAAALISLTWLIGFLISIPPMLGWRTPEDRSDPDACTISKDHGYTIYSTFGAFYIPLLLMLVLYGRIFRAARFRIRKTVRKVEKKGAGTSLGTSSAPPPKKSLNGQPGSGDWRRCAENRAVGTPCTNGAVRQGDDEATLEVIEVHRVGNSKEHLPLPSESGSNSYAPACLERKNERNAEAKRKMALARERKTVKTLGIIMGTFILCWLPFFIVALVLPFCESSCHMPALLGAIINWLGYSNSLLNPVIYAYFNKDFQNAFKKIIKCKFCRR
The series can be described thus: Affinity for the 5-HT1A receptors, displacement of [3H]8-OH-DPAT. Format: binding. As for the experimental part:
Measurement of the affinity of the compounds in the invention for the 5-HT1A receptors
For these experiments, rat cerebral cortices are used. After thawing the brain in Tris-HCl buffer (50 mmol, pH=7.4) at 25° C., the cerebral cortex is removed and homogenized in 20 volumes of buffer maintained at 4° C. The homogenate is centrifuged at 39 000×g for 10 minutes, and the centrifugation pellet is suspended in the same volume of buffer and recentrifuged. After resuspending under the same conditions, the homogenate is incubated for 10 minutes at 37° C. and then recentrifuged. The final pellet is suspended in cold Tris-HCl reaction buffer (50 mmol) at 25° C. containing […] of pargyline, 4 mmol of CaCl2 and 0.10% of ascorbic acid. The final concentration of tissue in the incubation medium is 10 mg/tube.
The nonspecific binding is defined by using […] of serotonin. The reaction tubes are incubated at 23° C. for 30 minutes and their content is then rapidly filtered under vacuum through Whatman GF/B filters, and the tubes are rinsed with twice 5 ml of tris-HCl buffer at 25° C. The radio-activity collected on the filter is analyzed by liquid scintillation, by adding 4 ml of scintillant liquid (Emulsifier Safe, Packard, Warrenville, USA). All the experiments are performed in triplicate.

The mark [4] stands for this setting: [35S]GTPγS binding, maximum stimulation defined with serotonin (10 μmmol), read-out: % stimulation Maximum effect.

pKi: −log10 of the molar value. Structures can show the parent of a compound that is named as a salt. Where two headings read alike, the source gives them in different places.

T1 sequence (P61169 whole entry): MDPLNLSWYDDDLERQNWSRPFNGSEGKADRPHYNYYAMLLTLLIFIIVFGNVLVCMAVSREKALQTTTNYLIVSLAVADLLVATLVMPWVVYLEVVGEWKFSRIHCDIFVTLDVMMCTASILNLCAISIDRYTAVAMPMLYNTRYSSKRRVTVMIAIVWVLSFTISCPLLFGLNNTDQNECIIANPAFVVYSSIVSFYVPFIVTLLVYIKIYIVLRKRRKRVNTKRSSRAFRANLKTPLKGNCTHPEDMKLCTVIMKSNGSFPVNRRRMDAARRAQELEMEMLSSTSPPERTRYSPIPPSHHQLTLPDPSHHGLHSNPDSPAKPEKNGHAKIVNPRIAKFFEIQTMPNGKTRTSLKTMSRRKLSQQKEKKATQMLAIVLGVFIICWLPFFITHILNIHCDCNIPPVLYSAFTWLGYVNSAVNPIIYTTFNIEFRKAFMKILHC

By melting point is commonly meant the temperature of the solid-liquid transition. Regarding `Cc1ccc(CNCC2(Cl)CCN(C(=O)c3ccc(F)c(Cl)c3)CC2)nc1` (as salt: hydrochloride) [Compound 1-9, (3-chloro-4-fluorophenyl)-(4-chloro-4-{[(5-methylpyridin-2-ylmethyl)amino]-methyl}piperidin-1-yl)methanone], the melting point was 190 °C (dec.).

What is called pKi is the negative decadic logarithm of the Ki, by convention in mol/L. A low value points to a large Ki. In series [1], `CCCN(CCC)C1CCc2cccc(O)c2C1` (centres unmarked) [Compound 8-OH-DPAT, 8-hydroxy-2-di-n-propylaminotetralin, reference compound] showed a pKi of 6.20. In series [2] (read-out: % stimulation Maximum effect, [35S]GTPγS binding, maximum stimulation defined with serotonin (10 μmmol)), the Emax came out at 41%.

Compound `O=C(c1ccc(F)c(Cl)c1)N1CCC(F)(CNCc2ccc(Cl)cn2)CC1` (as salt: fumarate) [Compound 1-3, (3-chloro-4-fluorophenyl)-(4-fluoro-4-{[(5-chloropyridin-2-ylmethyl)amino]methyl}piperidin-1-yl)methanone] displayed a melting point of 160 to 162 °C.

In turn, `CCCN(CCC)C1CCc2cccc(O)c2C1` (single isomer, unassigned; (+)) [(+)-8-OH-DPAT, reference compound] had a pKi in series [1] of 6.10. Also, in series [2] ([35S]GTPγS binding, maximum stimulation defined with serotonin (10 μmmol)), the “% stimulation Maximum effect” value came out at 59%.

Turning to `Cc1ccc(CNCC2(Cl)CCN(C(=O)c3ccc(F)c(Cl)c3)CC2)nc1` [Compound 1-9, (3-chloro-4-fluorophenyl)-(4-chloro-4-{[(5-methylpyridin-2-ylmethyl)amino]-methyl}piperidin-1-yl)methanone], the Ki in series [1] (read-out: D2 pKi (converted)) was more than 10000 nM; in series [3] (read-out: 5-HT1A pKi (converted)), 0.794 nM. The “Selectivity 5-HT1A/D2” value in series [3] (ratio of 5-HT1A to D2 affinity) is more than 1000. In addition, in series [2] (setting [4]), the Emax was 100%.

`Cc1cnc(CNCC2(F)CCN(C(=O)c3ccc(Cl)c(Cl)c3)CC2)nc1` (as salt: fumarate) [Compound 1-6, (3,4-dichlorophenyl)-(4-fluoro-4-{[(5-methylpyrimidin-2-ylmethyl)amino]-methyl}piperidin-1-yl)methanone] registered a melting point of 161 °C.

In turn, `O=C(c1ccc(F)c(Cl)c1)N1CCC(F)(CNCc2ccc(O)cn2)CC1` (as salt: fumarate) [Compound 1-1, (3-chloro-4-fluorophenyl)(4-fluoro-4-{[(5-hydroxypyridin-2-ylmethyl)amino]methyl}-piperidin-1-yl)methanone] gave a melting point of 225 to 227 °C.

Consider `Cc1ccc(CNCC2(F)CCN(C(=O)c3ccc(F)c(F)c3)CC2)nc1` (as salt: fumarate) [Compound 1-11, (3,4-difluorophenyl)-(4-fluoro-4-{[(5-methylpyridin-2-ylmethyl)amino]methyl}piperidin-1-yl)methanone], for which the melting point was 158 °C.

With `Cc1ccc(CNCC2(F)CCN(C(=O)c3ccc(F)c(C#N)c3)CC2)nc1` (as salt: fumarate) [Compound 1-13, (3-cyano-4-fluorophenyl)-(4-fluoro-4-{[(5-methylpyridin-2-ylmethyl)amino]methyl}piperidin-1-yl)methanone], the melting point came to 175 °C.

On to `O=C1CC2(CCCC2)CC(=O)N1CCCCN1CCN(c2ncccn2)CC1` [buspirone], for which the Emax in series [2] (setting [4]) came to 22%.

The compound `Cc1ccc(CNCC2(F)CCN(C(=O)c3ccc(F)c(Cl)c3)CC2)nc1` [Compound I-66, (3-chloro-4-fluorophenyl)(4-fluoro-4-{[(5-methylpyridin-2-ylmethyl)-amino]methyl}piperidin-1-yl)methanone, reference compound] showed a pKi in series [3] of 9.10. Moreover, the Emax in series [2] (setting [4]) was determined as 75%.

In turn, `Cc1ccc(CNCC2(F)CCN(C(=O)c3ccc(Cl)c(F)c3)CC2)nc1` (as salt: fumarate) [Compound 1-12, (3-fluoro-4-chlorophenyl)-(4-fluoro-4-{[(5-methylpyridin-2-ylmethyl)amino]methyl}piperidin-1-yl)methanone] displayed a melting point of 150 °C.

For the compound `Cc1ccc(CNCC2(F)CCN(C(=O)c3ccc(Cl)c(Cl)c3)CC2)nn1` (as salt: oxalate) [Compound 1-8, (3,4-dichlorophenyl)-(4-fluoro-4-{[(6-methylpyridazin-3-ylmethyl)amino]-methyl}piperidin-1-yl)methanone], the melting point was 203 °C (dec.).

As for `O=C(c1ccc(F)c(Cl)c1)N1CCC(F)(CNCc2ccc(CF)cn2)CC1` (as salt: fumarate) [Compound 1-4, (3-chloro-4-fluorophenyl)-(4-fluoro-4-{[(5-fluoromethylpyridin-2-ylmethyl)amino]-methyl}piperidin-1-yl)methanone], the melting point lay within 157 to 159 °C.

Take `Cc1ccc(CNCC2(F)CCN(C(=O)c3ccc(F)c(Cl)c3)CC2)nn1` (as salt: hydrochloride) [Compound 1-7, (3-chloro-4-fluorophenyl)-(4-fluoro-4-{[(6-methylpyridazin-3-ylmethyl)amino]-methyl}piperidin-1-yl)methanone]: the melting point is 205 °C (dec.).

On to `N#Cc1ccc(CNCC2(F)CCN(C(=O)c3ccc(F)c(Cl)c3)CC2)nc1` (as salt: fumarate) [Compound 1-2, (3-chloro-4-fluorophenyl)-(4-fluoro-4-{[(5-cyanopyridin-2-ylmethyl)amino]methyl}-piperidin-1-yl)methanone], for which the melting point was in the range of 170 to 172 °C.

`Cc1ccc(CNCC2(F)CCN(C(=O)c3cccc(C(F)(F)F)c3)CC2)nc1` (as salt: hydrochloride) [Compound 1-14, (3-trifluoromethylphenyl)-(4-fluoro-4-{[(5-methylpyridin-2-ylmethyl)amino]methyl}piperidin-1-yl)methanone] showed a melting point of 172 °C.
